Source: US4405743A, “Pyrazolylpyrimidine derivatives” (Hokko Chemical Industry Co., Ltd., priority 1981, dated 1983)
Like-named read-outs stand apart in the source and are kept apart here.

How the values were obtained:
rice plant [1] = conditions: in vivo
rice plant [2] = conditions: blast curative test, 200 ppm
Sphaerotheca friliginea = experiment: Effect of controlling cucumber powdery mildew, Experimental Example 4; type: in vivo; conditions: sprayed liquid 200 ppm, 10 days after inoculation
Protocol: 10 ml of each of test liquids diluted to a predetermined concentration was sprayed over seedlings of a cucumber plant (variety: Sagami Hanpaku) grown up to the first leaf stage which has been soil cultured in an unglazed pot with a diameter of 9 cm in a green house. After allowing to stand overnight, the seedlings were sprayed for inoculation with a spore suspension of Sphaerotheca friliginea. Ten days after the inoculation, the rate of a lesion area (%) was checked and a control value was evaluated from the following equation. The degree of chemical injury against a cucumber plant was determined in the same manner as in Experimental Example.

Pyricularia oryzae [3] = type: in vivo, Pyricularia oryzae on rice plant (variety: Asahi); conditions: rice blast, prevention; 200 ppm; 5 days after inoculation
rice plant [4] = conditions: blast prevention test, 200 ppm
Cochliobolus miyabeanus = experiment: Effect of controlling rice brown spot, Experimental Example 3; type: in vivo, Cochliobolus miyabeanus on rice plant (variety: Asahi); conditions: sprayed liquid 500 ppm, 5 days after inoculation
Pyricularia oryzae [5] = type: in vivo, Pyricularia oryzae on rice plant (variety: Asahi); conditions: rice blast, curative treatment; sprayed liquid 200 ppm; 5 days after spraying

SMILES | Degree of chemical injury (rice plant [1]) | Degree of chemical injury (rice plant [2]) | Control Value (Sphaerotheca friliginea) [%] | Control Value (Pyricularia oryzae [3]) [%] | Degree of chemical injury (rice plant [4]) | Degree of chemical injury (cucumber plant; in vivo) | Control Value (Cochliobolus miyabeanus) [%] | Control Value (Pyricularia oryzae [5]) [%] | Degree of chemical injury (cucumber plant; 200 ppm)
Cc1cc(SC#N)nc(-n2nc(C)cc2C)n1 [Comparative Chemical 3] | 5 |  |  |  |  |  |  |  | 
CCOc1ccnc(-n2nc(C)cc2C)n1 [Compound 1] | 0 | 0 | 90 | 100 | 0 | 0 | 99 | 100 | 
CCSc1ccnc(-n2nc(C)cc2C)n1 [Compound 2] | 0 | 0 | 88 | 100 | 0 | 0 | 94 | 100 | 
Cc1cc(C)n(-c2nccc(Oc3ccccc3)n2)n1 [Compound 3] | 0 | 0 | 94 | 100 | 0 | 0 | 100 | 98 | 
Cc1cc(Sc2ccc(Cl)cc2)nc(-n2nc(C)cc2C)n1 [Compound 5] | 0 | 0 | 85 | 100 | 0 | 0 | 100 | 100 | 
Cc1cc(Oc2ccccc2Cl)nc(-n2nc(C)cc2C)n1 [Compound 6] | 0 | 0 | 100 | 100 | 0 | 0 | 100 | 88 | 
Cc1cc(Oc2cccc(Cl)c2)nc(-n2nc(C)cc2C)n1 [Compound 7] | 0 | 0 | 100 | 100 | 0 | 0 | 100 | 100 | 
Cc1cc(Oc2ccc(Br)cc2)nc(-n2nc(C)cc2C)n1 [Compound 8] | 0 |  | 78 | 100 | 0 | 0 | 61 |  | 
Cc1cc(Oc2ccc(F)cc2)nc(-n2nc(C)cc2C)n1 [Compound 9] | 0 | 0 | 100 | 100 | 0 | 0 | 100 | 100 | 
Cc1cc(Oc2ccc(I)cc2)nc(-n2nc(C)cc2C)n1 [Compound 10] | 0 |  |  | 100 | 0 |  | 60 |  | 
Cc1cc(Oc2ccccc2C)nc(-n2nc(C)cc2C)n1 [Compound 11] | 0 | 0 | 90 | 100 | 0 | 0 | 100 | 100 | 
Cc1ccc(Sc2cc(C)nc(-n3nc(C)cc3C)n2)cc1 [Compound 16] | 0 | 0 |  | 100 | 0 |  | 100 | 100 | 
CSc1ccc(Oc2cc(C)nc(-n3nc(C)cc3C)n2)cc1 [Compound 18] | 0 |  |  | 100 | 0 |  | 90 |  | 
Cc1cc(Oc2ccc(C#N)cc2)nc(-n2nc(C)cc2C)n1 [Compound 19] |  |  |  | 100 | 0 |  |  |  | 
Cc1cc(Oc2ccc([N+](=O)[O-])cc2)nc(-n2nc(C)cc2C)n1 [Compound 20] | 0 |  | 78 | 82 | 0 | 0 | 91 |  | 
Cc1cc(Oc2cccc(C(F)(F)F)c2)nc(-n2nc(C)cc2C)n1 [Compound 21] | 0 |  | 86 | 100 | 0 | 0 | 77 |  | 
CCOC(=O)c1ccc(Oc2cc(C)nc(-n3nc(C)cc3C)n2)cc1 [Compound 22] | 0 |  |  | 100 | 0 |  | 100 |  | 
Cc1cc(Oc2ccc(Cl)c(Cl)c2)nc(-n2nc(C)cc2C)n1 [Compound 24] | 0 | 0 |  | 92 | 0 | 0 | 89 | 84 | 
Cc1cc(Oc2ccc(Cl)c(C)c2)nc(-n2nc(C)cc2C)n1 [Compound 26] | 0 |  |  | 100 | 0 |  | 100 |  | 
Cc1cc(Oc2ccc([N+](=O)[O-])c(C)c2)nc(-n2nc(C)cc2C)n1 [Compound 31] |  | 0 | 77 | 100 | 0 |  |  | 84 | 0
